From US8404643B2, “Metastin derivatives and use thereof” (priority 2005, dated 2013) come the findings set out here.

Numbered stars: 1 amine (or outer) side, 2 acyl side, 3 side chain; on linkers, the order of the positions; unused ones are H or OH. Square brackets hold non-standard residues; d marks the D form. Peptide text beside a SMILES is read from it. * marks the point of attachment. Phe(3R-OH) = O=C([C@@H](N[*:1])[C@H](O[*:3])c1ccccc1)[*:2]; Phe(4-Cl) = N[C@@H](Cc1ccc(Cl)cc1)C(=O)O; Phe(3-F) = N[C@@H](Cc1cccc(F)c1)C(=O)O; Phe(4-F) = N[C@@H](Cc1ccc(F)cc1)C(=O)O; Arg(Me) = CNC(=N)NCCC[C@H](N)C(=O)O; Hyp = O=C(O)[C@@H]1C[C@@H](O)CN1; dNMeF = CN[C@H](Cc1ccccc1)C(=O)O; NMeA = CN[C@@H](C)C(=O)O; 2Abz = Nc1ccccc1C(=O)O; Dap = NC[C@H](N)C(=O)O; Aib = CC(C)(N)C(=O)O; Bn = c1ccc(C*)cc1; azaGly = NNC(=O)O

T1 sequence (Q969F8 whole entry L364H): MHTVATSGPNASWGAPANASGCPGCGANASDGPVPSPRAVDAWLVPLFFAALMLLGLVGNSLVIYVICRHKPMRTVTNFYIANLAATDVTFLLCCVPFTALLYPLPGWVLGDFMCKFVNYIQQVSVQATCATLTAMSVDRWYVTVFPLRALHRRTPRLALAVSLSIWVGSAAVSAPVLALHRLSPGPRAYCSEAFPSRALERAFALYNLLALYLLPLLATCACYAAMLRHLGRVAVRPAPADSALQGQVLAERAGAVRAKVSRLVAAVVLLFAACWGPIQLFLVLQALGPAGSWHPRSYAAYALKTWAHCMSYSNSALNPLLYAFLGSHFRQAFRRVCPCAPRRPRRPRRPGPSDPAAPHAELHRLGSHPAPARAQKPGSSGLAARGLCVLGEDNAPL

The assay has as its target T1, hOT7T175 (Homo sapiens, UniProt Q969F8).
T1 construct: expressed in transfected cells
Kind of assay: Assay for intracellular Ca ion level-increasing activity using FLIPR. The assay is classed as cell-based. The note with it: hOT7T175/CHO cells, relative to Metastin (1-54). The gist of the method: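 CHO/dhfr− cells stably transfected with hOT7T175, selected for high metastin response, loaded with Fluo3-AM for 1 h at 37 °C in HANKS/HBSS (pH 7.4) with probenecid. Peptides were diluted from 1×10^−3 M DMSO stock into HANKS/HBSS with 2.5 mM probenecid, 0.2% BSA, 0.1% CHAPS; intracellular Ca rise read by FLIPR.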
Regarding `CNC(=N)NCCC[C@H](NC(=O)[C@H](CC(C)C)NC(=O)NNC(=O)[C@H](Cc1ccccc1)NC(=O)[C@@H](NC(=O)[C@H](CC(N)=O)NC(=O)c1ccccc1NC(=O)[C@@H](Cc1ccc(O)cc1)NC(C)=O)[C@@H](C)O)C(=O)N[C@@H](Cc1c[nH]c2ccccc12)C(N)=O` [Compound No. 728, Ac-D-Tyr-Abz(2)-Asn-Thr-Phe-AzaGly-Leu-Arg(Me)-Trp-NH2] (Ac-[dY][2Abz]NTF[azaGly]L[Arg(Me)]W-NH2), the “Specific Activity: intracellular Ca ion level-increasing activity [specific activity to Metastin (1-54)]” value came to 3.2.

On to `CNC(=N)NCCC[C@H](NC(=O)[C@H](CC(C)C)NC(=O)NNC(=O)[C@@H](NC(=O)[C@@H](NC(=O)[C@H](CC(N)=O)NC(=O)[C@@H]1C[C@@H](O)CN1C(=O)[C@@H](Cc1ccc(O)cc1)NC(C)=O)[C@@H](C)O)[C@H](O)c1ccccc1)C(=O)N[C@@H](Cc1c[nH]c2ccccc12)C(N)=O` [Compound No. 877, Ac-D-Tyr-Hyp-Asn-Thr-threo-Ser(3Phenyl)-AzaGly-Leu-Arg(Me)-Trp-NH2] (Ac-[dY][Hyp]NT[Phe(3R-OH)][azaGly]L[Arg(Me)]W-NH2), for which the “Specific Activity: intracellular Ca ion level-increasing activity [specific activity to Metastin (1-54)]” value is given as 1.0.

Turning to `CC(=O)N[C@H](Cc1ccc(O)cc1)C(=O)N1C[C@H](O)C[C@H]1C(=O)N[C@@H](CC(N)=O)C(=O)N[C@H](C(=O)N[C@@H](Cc1ccccc1)C(=O)NNC(=O)N[C@@H](CC(C)C)C(=O)N[C@@H](CCCNC(=N)N)C(=O)N[C@@H](Cc1c[nH]c2ccccc12)C(N)=O)[C@@H](C)O` [Compound No. 797, Ac-D-Tyr-Hyp-Asn-Thr-Phe-AzaGly-Leu-Arg-Trp-NH2] (Ac-[dY][Hyp]NTF[azaGly]LRW-NH2), the “Specific Activity: intracellular Ca ion level-increasing activity [specific activity to Metastin (1-54)]” value was determined as 1.4.

For the compound `CNC(=N)NCCC[C@H](NC(=O)[C@H](CC(C)C)NC(=O)NNC(=O)[C@H](Cc1ccc(F)cc1)NC(=O)[C@@H](NC(=O)[C@H](CC(N)=O)NC(=O)[C@@H]1C[C@@H](O)CN1C(=O)[C@@H](Cc1ccc(O)cc1)NC(C)=O)[C@@H](C)O)C(=O)N[C@@H](Cc1c[nH]c2ccccc12)C(N)=O` [Compound No. 787, Ac-D-Tyr-Hyp-Asn-Thr-Phe(4F)-AzaGly-Leu-Arg(Me)-Trp-NH2] (Ac-[dY][Hyp]NT[Phe(4-F)][azaGly]L[Arg(Me)]W-NH2), the “Specific Activity: intracellular Ca ion level-increasing activity [specific activity to Metastin (1-54)]” value is 2.3.

For the compound `CNC(=N)NCCC[C@H](NC(=O)[C@H](CC(C)C)NC(=O)NNC(=O)[C@H](Cc1ccccc1)NC(=O)[C@@H](NC(=O)[C@H](CC(N)=O)NC(=O)[C@@H]1C[C@@H](OCc2ccccc2)CN1C(=O)[C@@H](Cc1ccc(O)cc1)NC(C)=O)[C@@H](C)O)C(=O)N[C@@H](Cc1c[nH]c2ccccc12)C(N)=O` [Compound No. 781, Ac-D-Tyr-Hyp(Bzl)-Asn-Thr-Phe-AzaGly-Leu-Arg(Me)-Trp-NH2] (Ac-[dY][Hyp](Bn)NTF[azaGly]L[Arg(Me)]W-NH2), the “Specific Activity: intracellular Ca ion level-increasing activity [specific activity to Metastin (1-54)]” value is reported as 1.0.

For the compound `CNC(=N)NCCC[C@H](NC(=O)[C@H](CC(C)C)NC(=O)NNC(=O)[C@H](Cc1ccccc1)NC(=O)[C@@H](NC(=O)[C@H](CC(N)=O)NC(=O)[C@H](C)N(C)C(=O)[C@@H](Cc1ccc(O)cc1)NC(C)=O)[C@@H](C)O)C(=O)N[C@@H](Cc1c[nH]c2ccccc12)C(N)=O` [Compound No. 725, Ac-D-Tyr-NMeAla-Asn-Thr-Phe-AzaGly-Leu-Arg(Me)-Trp-NH2] (Ac-[dY][NMeA]NTF[azaGly]L[Arg(Me)]W-NH2), the “Specific Activity: intracellular Ca ion level-increasing activity [specific activity to Metastin (1-54)]” value amounted to 2.7.

Regarding `CNC(=N)NCCC[C@H](NC(=O)[C@H](CC(C)C)NC(=O)NNC(=O)[C@H](Cc1ccccc1)NC(=O)[C@@H](NC(=O)[C@H](Cc1cnc[nH]1)NC(=O)[C@@H]1C[C@@H](O)CN1C(=O)[C@@H](Cc1ccc(O)cc1)NC(C)=O)[C@@H](C)O)C(=O)N[C@@H](Cc1c[nH]c2ccccc12)C(N)=O` [Compound No. 816, Ac-D-Tyr-Hyp-His-Thr-Phe-AzaGly-Leu-Arg(Me)-Trp-NH2] (Ac-[dY][Hyp]HTF[azaGly]L[Arg(Me)]W-NH2), the “Specific Activity: intracellular Ca ion level-increasing activity [specific activity to Metastin (1-54)]” value is given as 1.1.

For `CNC(=N)NCCC[C@H](NC(=O)[C@H](CC(C)C)NC(=O)NNC(=O)[C@H](Cc1ccccc1)NC(=O)[C@@H](NC(=O)[C@H](CC(N)=O)NC(=O)[C@@H](Cc1ccccc1)N(C)C(=O)[C@@H](Cc1ccc(O)cc1)NC(C)=O)[C@@H](C)O)C(=O)N[C@@H](Cc1c[nH]c2ccccc12)C(N)=O` [Compound No. 782, Ac-D-Tyr-D-NMePhe-Asn-Thr-Phe-AzaGly-Leu-Arg(Me)-Trp-NH2] (Ac-[dY][dNMeF]NTF[azaGly]L[Arg(Me)]W-NH2), the “Specific Activity: intracellular Ca ion level-increasing activity [specific activity to Metastin (1-54)]” value came to 1.8.

Consider `CC(=O)N[C@H](Cc1ccc(O)cc1)C(=O)N[C@H](Cc1c[nH]c2ccccc12)C(=O)N[C@@H](CC(N)=O)C(=O)N[C@H](C(=O)N[C@@H](Cc1ccccc1)C(=O)NNC(=O)N[C@@H](CC(C)C)C(=O)N[C@H](CCCNC(=N)N)C(=O)N[C@@H](Cc1c[nH]c2ccccc12)C(N)=O)[C@@H](C)O` [Compound No. 708, Ac-D-Tyr-D-Trp-Asn-Thr-Phe-AzaGly-Leu-D-Arg-Trp-NH2] (Ac-[dY][dW]NTF[azaGly]L[dR]W-NH2), for which the “Specific Activity: intracellular Ca ion level-increasing activity [specific activity to Metastin (1-54)]” value amounted to 12.8.

With `CNC(=N)NCCC[C@H](NC(=O)[C@H](CC(C)C)NC(=O)NNC(=O)[C@H](Cc1ccccc1)NC(=O)[C@@H](NC(=O)[C@H](CC(N)=O)NC(=O)[C@H](CCCCN)NC(=O)[C@@H](Cc1ccc(O)cc1)NC(C)=O)[C@@H](C)O)C(=O)N[C@@H](Cc1c[nH]c2ccccc12)C(N)=O` [Compound No. 745, Ac-D-Tyr-Lys-Asn-Thr-Phe-AzaGly-Leu-Arg(Me)-Trp-NH2] (Ac-[dY]KNTF[azaGly]L[Arg(Me)]W-NH2), the “Specific Activity: intracellular Ca ion level-increasing activity [specific activity to Metastin (1-54)]” value was 3.0.

For `CNC(=N)NCCC[C@H](NC(=O)[C@H](CC(C)C)NC(=O)NNC(=O)[C@H](Cc1ccccc1)NC(=O)[C@@H](NC(=O)[C@H](CN)NC(=O)[C@@H]1C[C@@H](O)CN1C(=O)[C@@H](Cc1ccc(O)cc1)NC(C)=O)[C@@H](C)O)C(=O)N[C@@H](Cc1c[nH]c2ccccc12)C(N)=O` [Compound No. 863, Ac-D-Tyr-Hyp-Dap-Thr-Phe-AzaGly-Leu-Arg(Me)-Trp-NH2] (Ac-[dY][Hyp][Dap]TF[azaGly]L[Arg(Me)]W-NH2), the “Specific Activity: intracellular Ca ion level-increasing activity [specific activity to Metastin (1-54)]” value worked out at 0.9.

With `CNC(=N)NCCC[C@H](NC(=O)[C@H](CC(C)C)NC(=O)NNC(=O)[C@H](Cc1cccc(F)c1)NC(=O)[C@@H](NC(=O)[C@H](CC(N)=O)NC(=O)C(C)(C)NC(=O)[C@@H](Cc1ccc(O)cc1)NC(C)=O)[C@@H](C)O)C(=O)N[C@@H](Cc1c[nH]c2ccccc12)C(N)=O` [Compound No. 786, Ac-D-Tyr-Aib-Asn-Thr-Phe(3F)-AzaGly-Leu-Arg(Me)-Trp-NH2] (Ac-[dY][Aib]NT[Phe(3-F)][azaGly]L[Arg(Me)]W-NH2), the “Specific Activity: intracellular Ca ion level-increasing activity [specific activity to Metastin (1-54)]” value is listed as 3.3.

On to `CNC(=N)NCCC[C@H](NC(=O)[C@H](CC(C)C)NC(=O)NNC(=O)[C@H](Cc1ccc(Cl)cc1)NC(=O)[C@@H](NC(=O)[C@H](CC(N)=O)NC(=O)CNC(=O)[C@@H](Cc1ccc(O)cc1)NC(C)=O)[C@@H](C)O)C(=O)N[C@@H](Cc1c[nH]c2ccccc12)C(N)=O` [Compound No. 769, Ac-D-Tyr-Gly-Asn-Thr-Phe(4Cl)-AzaGly-Leu-Arg(Me)-Trp-NH2] (Ac-[dY]GNT[Phe(4-Cl)][azaGly]L[Arg(Me)]W-NH2), for which the “Specific Activity: intracellular Ca ion level-increasing activity [specific activity to Metastin (1-54)]” value was 1.5.
